Experiments:
[1] = test system: C-terminal phosphorylation of SMAD2; assay: C-terminal phosphorylation of SMAD2 in U87 cells; type: cell-based
Description: (§1) To identify markers for subjects that may benefit from this treatment, astrocytoma cell line U87 was serum starved overnight and treated with 10 ng/ml TGF-β1 for 40 hrs. […] However, as serum contains many essential elements and growth factors, the effect of serum starvation on cells might not be specific to the inhibition of TGF-β signaling. Therefore, we employed a TGF-β-inhibitor (SB 431542) known to interfere with the C-terminal phosphorylation of SMAD2. […] Thus in subsequent SRM analysis, TGF-β-inhibitor was used instead of serum starving.

[2] = test system: healthy neural stem cells (NSCs); assay: GBMSig cell-surface expression in healthy NSCs with TGF-β1 or inhibitor; type: cell-based
Description: [The source words this procedure for another cell line and reports this cell line under the same test.] The expression of the selected GBMSig proteins responsive to TGF-β viz. SLC16A1, HMOX1, MRC2, SLC16A3, CD47, and CD97 was also tested in primary GBM cells from SN143 tumor tissues in the presence of TGF-β or its inhibitor by flow cytometry. […] EGFR, EGFRVIII, and PTEN altered in GBM can create further heterogeneities in TGF-β responsiveness as observed through the expression of various GBMSig proteins.

[3] = test system: primary GBM cells from SN143 tumor tissues; assay: Flow cytometry of GBMSig expression in primary GBM cells from SN143 tumor tissue with TGF-β or its inhibitor; type: cell-based
Description: The expression of the selected GBMSig proteins responsive to TGF-β viz. SLC16A1, HMOX1, MRC2, SLC16A3, CD47, and CD97 was also tested in primary GBM cells from SN143 tumor tissues in the presence of TGF-β or its inhibitor by flow cytometry.

U87 cell line = assay: d-SRM assays of GBMSig protein expression in U87 cell line after TGF-β vs TGF-β-inhibitor treatment; type: cell-based
Description: Novel TGF-β responsive elements were identified among GBMSig through experimental validation. […] U87 cells were treated with TGF-β1 or its inhibitor alone or sequentially with inhibitor followed by TGF-β1. Changes in expressions of GBMSig proteins following such treatments were measured by SRM assays.
as §1

[4] = test system: isogenic cell lines of U87 (EGFR, EGFRVIII, PTEN); assay: Cell-surface GBMSig expression in response to TGF-β in U87 isogenic cell lines; type: cell-based
Description: Isogenic cell lines of U87 where key proliferative genes such as EGFR and EGFRVIII are overexpressed alone or in combination with PTEN were tested for molecular responsiveness of isogenic cell lines towards TGF-β treatment. In EGFR and EGFRVIII isogenic cell lines, there was elevated surface expression of SLC16A1 and HMOX1 in response to TGF-β treatment. PTEN expression, however, inhibited this effect, indicating possible involvement of a tumor suppressor PTEN in modulating the surface expression of these proteins in GBM. On the other hand, MRC2 and CD47 were up regulated in response to TGF-β treatment when PTEN was overexpressed.
Commonly mutated GBM genes include EGFR, EGFRVIII, and PTEN. Four isogenic cell lines of U87 in which these genes are expressed alone or in combinations of EGFRVIII and PTEN or EGFR and PTEN via a stably integrated retroviral vector were used (Gini, B., et al., Clin Cancer Res. (2013) 19:5722-5732).
There was an increase in the cell-surface expression of CD47, SLC16A3, MRC2, HMOX1 and SLC16A1 in response to TGF-β in all U87 isogenic cell lines similar to that of the parental cell line.

U-87 cells = settings: U-87, flow cytometry
Description: In an alternate assay, six GBMSig proteins viz. SLC16A1, MRC2, CD47, SLC16A3, HMOX1, and CD97 were tested as downstream factors of TGF-β signaling by flow cytometry. TGF-β or TGF-β inhibitor treated intact U-87 cells were analyzed by flow cytometry and the ratio of the respective GBMSig expression in response to TGF-β1 over its inhibitor was obtained.

[5] = primary GBM cells from SN143 tissue, flow cytometry
[6] = U87 isogenic overexpressing EGFR
[7] = U87 isogenic overexpressing EGFRVIII

NC(=O)c1ccc(-c2nc(-c3ccc4c(c3)OCO4)c(-c3ccccn3)[nH]2)cc1 [SB 431542]
C-terminal phosphorylation of SMAD2 ([1]; cells in normal media (DMEM+10% FCS) supplemented with inhibitor): dampened or diminished
expression of MRC2, CD47, SLC16A3 and CD97 after TGF-β-inhibitor treatment ([2]; NSCs): increased expression
effect on SLC16A1, HMOX1 and CD97 expression ([2]; healthy NSCs): little or no effect
expression of CD47 in response to TGF-β-inhibitor treatment compared to TGF-β1 treatment ([2]; healthy NSCs): 0.61 fold
expression of MRC2 in response to TGF-β-inhibitor treatment compared to TGF-β1 treatment ([2]; healthy NSCs): 0.19 fold
increase in surface expression of HMOX1 in response to TGF-β-inhibitor treatment relative to TGF-β treatment ([3]; SN143 tumor-derived GCSC populations): 30%

TGF-β1: TGF-β1, inducer of epithelial to mesenchymal transition, used at 10 ng/ml to treat cells
C-terminal phosphorylation of SMAD2 ([1]; U87 serum starved overnight, 10 ng/ml TGF-β1 for 40 hrs, in comparison to cells in serum-free media): increased
changes in cell-surface expression of SLC16A1, HMOX1, MRC2, CD47, SLC16A3 and CD97 in response to TGF-β treatment ([2]; NSCs): no significant changes
effect on SLC16A1, HMOX1 and CD97 expression ([2]; healthy NSCs): little or no effect
CD109 expression following TGF-β treatment relative to TGF-β-inhibitor alone (U87 cell line): 2.09 fold
CLCC1 expression following TGF-β treatment relative to TGF-β-inhibitor alone (U87 cell line): 2.26 fold
CRTAP expression following TGF-β treatment relative to TGF-β-inhibitor alone (U87 cell line): 2.12 fold
DDR2 expression following TGF-β treatment relative to TGF-β-inhibitor alone (U87 cell line): 3.53 fold
ITGA7 expression following TGF-β treatment relative to TGF-β-inhibitor alone (U87 cell line): 9.45 fold
MGST1 expression following TGF-β treatment relative to TGF-β-inhibitor alone (U87 cell line): 2.77 fold
MRC2 expression following TGF-β treatment relative to TGF-β-inhibitor alone (U87 cell line): 3.06 fold
PTGFRN expression following TGF-β treatment relative to TGF-β-inhibitor alone (U87 cell line): 2.18 fold
SLC16A1 expression following TGF-β treatment relative to TGF-β-inhibitor alone (U87 cell line): 2.05 fold
TGFBI expression following TGF-β treatment relative to TGF-β-inhibitor alone (U87 cell line): 10.54 fold
TNC expression following TGF-β treatment relative to TGF-β-inhibitor alone (U87 cell line): 6.55 fold
enrichment of CD47, VCAM1, MYOF, ABCA1, CD44, S100A10, CA12 and SLC16A3 on TGF-β treatment vs. TGF-β-inhibitor treatment (U87 cell line): > 1.3 fold
expression of CD97, SCAMP3, PDIA4, CD99, ABCA1, TMX1, RTN4 and CD151 following TGF-β treatment in comparison to inhibitor treatment (U87 cell line): remained largely unchanged
expression of the 11 proteins when TGF-β-inhibitor treated cells were retreated with TGF-β (U87 cell line): overexpressed
expression of ASPH, NRP1, CD276 and HMOX1 following TGF-β treatment (U87 cell line; vs inhibitor treatment): relatively reduced
expression of HMOX1 when treated with TGF-β1 compared to its inhibitor [3, 5]: 0.77 fold
expression of MRC2 when treated with TGF-β1 compared to its inhibitor [3, 5]: 1.62 fold
expression of SLC16A1 when treated with TGF-β1 compared to its inhibitor [3, 5]: 0.79 fold
expression of HMOX1 in response to TGF-β ([4]; EGFR+PTEN cells): 1.058 fold
expression of SLC16A1 in response to TGF-β ([4]; EGFR+PTEN cells): 0.724 fold
expression of CD97 ([4]; EGFRVIII alone): 0.75±0.010 fold
expression of SLC16A3 ([4]; EGFRVIII alone): 0.97 fold
expression of CD97 ([4]; EGFRVIII+PTEN cells): 1.51 fold
expression of HMOX1 in response to TGF-β ([4]; EGFRVIII+PTEN cells): 1.48 fold
expression of SLC16A1 in response to TGF-β ([4]; EGFRVIII+PTEN cells): 1.19 fold
expression of SLC16A3 ([4]; EGFRVIII+PTEN cells): 1.3 fold
increase in expression of HMOX1 in response to TGF-β compared to the parental cell line [4, 6]: 2.69 fold
increase in expression of SLC16A1 in response to TGF-β compared to the parental cell line [4, 6]: 1.5±0.028 fold
increase in expression of HMOX1 in response to TGF-β compared to the parental cell line [4, 7]: 2.13 fold
increase in expression of SLC16A1 in response to TGF-β compared to the parental cell line [4, 7]: 1.75 fold
cell-surface expression of CD47, SLC16A3, MRC2, HMOX1 and SLC16A1 in response to TGF-β ([4]; all U87 isogenic cell lines, similar to parental cell line): increase
MRC2 and CD47 expression in response to TGF-β treatment ([4]; when PTEN was overexpressed): up regulated
increase of ratio of cell-surface CD47, TGF-β over TGF-β inhibitor (U-87 cells): 40%
increase of ratio of cell-surface HMOX1, TGF-β over TGF-β inhibitor (U-87 cells): 20%
increase of ratio of cell-surface MRC2, TGF-β over TGF-β inhibitor (U-87 cells): 25%
increase of ratio of cell-surface SLC16A1, TGF-β over TGF-β inhibitor (U-87 cells): 20%
increase of ratio of cell-surface SLC16A3, TGF-β over TGF-β inhibitor (U-87 cells): 30%
increase of ratio of cell-surface CD97, TGF-β over TGF-β inhibitor (U-87 cells; essentially no change): 1.1 fold

— patent publication US20170176439A1, “MARKERS AND THERAPEUTIC INDICATORS FOR GLIOBLASTOMA MULTIFORME (GBM)” (Institute for Systems Biology, priority 2014, published 2017)
